In US20240208896A1, “PRODRUGS OF KV7 CHANNEL OPENERS” (Xyzagen, Inc., priority 2021, published 2024):
Like-named read-outs stand apart in the source and are kept apart here.

Legend:
[1] = 1000 ng/mL
Protocol: Plasma was collected by the biomaterial vendor and kept frozen at −20° C.
The samples were analyzed by HPLC separation and mass spectrometry detection for prodrug amount, relative to a baseline time 0 control sample. Triplicate samples were generated at each time point and the peak area response was averaged and converted to a percent of baseline control.

[2] = Rat PK at equimolar dose to Ezogabine (20 mg/kg) in 0.5% methylcellulose; conditions: for AUClast/D / Cmax/D: male cannulated rats, equimolar to Ezogabine 20 mg/kg, 0.5% methylcellulose, analyte the dosed prodrug
Protocol: (§1) Blood samples were collected at the same time points over 24 hours to generate a concentration time profile. Two male rats were dosed per group. Plasma samples were analyzed by LC/MS/MS and the resulting concentration time profiles and PK parameters are provided.
as §1, §1

[3] = Solvent solubility assessment by visual inspection; type: physicochemical
Protocol: Compounds were weighed and placed into a 4 dram vials and solvents were added to the target concentration. Compounds were vortex and visually inspected for particulates and considered soluble if clear upon visual inspection with and without magnification. Solubility was reported as either greater than (>) or less than (<) from the prepared concentration. […] It was evaluated at 10 mg/mL in 0.1 N NaCl and was freely soluble. It was evaluate at 1 mg/mL in 0.1 N NaOH and 0.1 N Na2HPO4 and was freely soluble. In ethanol and methanol it was freely soluble at a concentration of 75 mg/mL. […] It was freely soluble at 75 mg/mL in methanol and ethanol. It was soluble at 1 mg/mL in 1N HCl.

[4] = Pharmacokinetics of ezogabine prodrugs in rat (IV, IM, PO); conditions: rat, in vivo, po
Protocol: Blood was diluted by 10% with these stabilizers.
Extraction of the molecules was conducted by taking a 50 uL aliquot of plasma and adding 200 uL of acetonitrile containing 200 ng/mL tolbutamide as the internal standard. Samples were precipitated in a 96 well plate, centrifuges and an aliquot transferred to a new plate, dried down under heat and nitrogen and then reconstituted in the initial mobile phase conditions of the LC-MS/MS method. […] A standard curve was prepared from 5000 ng/mL to 1 ng/mL for each analyte. Concentration data from the bioanalytical run was analyzed by Phoenix Winnonlin version 8 for noncompartmental PK analysis, plotting of concentration time curves and tabulation of PK parameters.
150 uL of blood were collected at predesignated time points. At completion of the study animals were asphyxiated by carbon dioxide gas and exsanguinated for euthanasia.

[5] = Acid and organic solution stability, HPLC-UV 250 nm; conditions: 5 mg/mL; for Degradation / conversion to ezogabine in solution: acidic solutions and organic solvents, up to 3 weeks
Protocol: An HPLC-UV Vis method was developed using 0.1% Formic acid in water as mobile phase A and 0.1% Formic acid in acetonitrile as mobile Phase B. A gradient method was developed ramping from 10% A to 90% B over 8 minutes and then returning to 10% A at 8.5 minutes on a 4.6×50 mm Zorbax C-18 column. Injections of 10 uL of stability solutions were injected for analyte detection.
[…] Aliquots were collected at serial time points and then diluted to a nominal concentration of 100 ug/mL for injection to the HPLC and 250 nm monitored by the diode array detector. Data at approximately 10 days is presented.
Aliquots were collected at serial time points and then diluted to a nominal concentration of 100 ug/mL for injection to the HPLC and 250 nm monitored by the diode array detector.
(§2) It was also evaluated at 2 N HCl at 37° C. Aliquots were collected at serial time points and then diluted to a nominal concentration of 100 ug/mL for injection to the HPLC and 250 nm monitored by the diode array detector.
as §2, §2, §2

[6] = Benchtop solvent stability exposed to light, HPLC-UV 230 nm, up to 7 days; type: physicochemical; conditions: for Stability in solvent: benchtop, exposed to light
Protocol: Compounds in solvent were left on the benchtop exposed to light for up to 7 days since it is known that Compound 1 will degrade with light within 3-7 days.
Stability was assessed by taking an aliquot from the solubility vials at each test day. A single replicate was injected for each test condition.
Samples were injected onto an HPLC system with an aqueous mobile phase and acetonitrile organic phase and compounds were separated on a C8 50×2 mm column. Wavelength 230 nm was monitored for absorption and integrated for peak area while the mass spectrometer was used to confirm mass. Samples were tested on Day 1 and on subsequent days through Day 7.

[7] = target: Human Kv7.2/7.3 (Homo sapiens, UniProt O43525+O43526); test: In vitro screen of Kv7.2/7.3 voltage gated potassium channels (FluxOR, FLIPR); type: cell-based; conditions: Human Kv7.2/7.3 cells; FluxOR fluorescence; 0.03 to 30 μM
Protocol: Human Kv7.2/7.3 cells are harvested, counted and seeded in black, clear-bottomed 96 well plates at a density of 50,000 cells per well in 100 μl volume and incubated overnight. The following day, media was removed and 40 μl of loading buffer (4.895 mL HBSS:HEPES, 50 μL probenecid, 50 μL power load, 5 μl FluxOR reagent) was added and incubated at room temperature for 30 minutes. After incubation loading buffer was removed and 40 μl of assay buffer added (4.45 ml HBSS:HEPES, 500 μl FluxOR assay buffer and 50 μL probenecid) and incubated for 10 minutes.

[8] = tested on: CCI model of neuropathic pain; test: CCI model of neuropathic pain (pin prick, von Frey); type: in vivo, Sprague Dawley rat; conditions: CCI rats, 1 h after pretreatment
Protocol: Compound 3 was tested for reversal of mechanical hypersensitivity to the pin prick test for hindlimb paw withdraw and the von Frey hairs for gram force mechanical allodynia in the CCI model of neuropathic pain. Male Sprague Dawley rats (n=8/group) were tested for baseline sensitivity on Day 1 (ipsilateral and contralateral paws) and administered XYG-203 orally; 40 mg/kg on Day 1, 20 mg/kg Day 3, 10 mg/kg Day 5, 5 mg/kg Day 7, 1 mg/kg Day 10 and baseline on Day 12. Mechanical hypersensitivity was tested 1 h after pretreatment. Data (mean±SD) were analyzed with a repeated measures ANOVA with Dunnet's adjustment for multiple comparisons.

Sequence of Human Kv7.2/7.3 (O43526 whole entry): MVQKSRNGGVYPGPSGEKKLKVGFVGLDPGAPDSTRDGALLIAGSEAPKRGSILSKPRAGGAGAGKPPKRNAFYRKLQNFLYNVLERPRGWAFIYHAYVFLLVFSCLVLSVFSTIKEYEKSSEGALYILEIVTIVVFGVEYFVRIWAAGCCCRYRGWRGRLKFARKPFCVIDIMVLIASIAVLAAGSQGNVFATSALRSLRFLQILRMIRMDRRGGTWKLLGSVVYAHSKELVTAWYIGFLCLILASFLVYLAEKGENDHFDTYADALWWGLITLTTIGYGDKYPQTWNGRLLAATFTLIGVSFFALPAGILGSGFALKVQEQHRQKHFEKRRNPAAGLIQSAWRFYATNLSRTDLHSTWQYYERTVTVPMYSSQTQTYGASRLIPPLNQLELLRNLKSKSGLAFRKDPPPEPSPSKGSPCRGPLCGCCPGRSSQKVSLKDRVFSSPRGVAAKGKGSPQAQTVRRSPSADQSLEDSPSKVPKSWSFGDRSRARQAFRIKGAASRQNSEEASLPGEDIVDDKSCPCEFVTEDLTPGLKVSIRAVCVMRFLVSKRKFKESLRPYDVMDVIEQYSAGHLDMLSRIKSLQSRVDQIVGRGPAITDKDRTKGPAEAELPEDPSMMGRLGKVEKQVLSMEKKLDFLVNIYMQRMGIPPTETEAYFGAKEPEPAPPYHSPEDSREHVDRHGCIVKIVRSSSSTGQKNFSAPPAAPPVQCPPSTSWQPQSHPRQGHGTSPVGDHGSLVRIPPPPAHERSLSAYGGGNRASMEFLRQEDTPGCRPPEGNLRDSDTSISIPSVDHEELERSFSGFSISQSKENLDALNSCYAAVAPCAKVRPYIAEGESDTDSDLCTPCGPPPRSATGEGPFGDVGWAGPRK
Sequence of Human Kv7.2/7.3 (O43525 whole entry): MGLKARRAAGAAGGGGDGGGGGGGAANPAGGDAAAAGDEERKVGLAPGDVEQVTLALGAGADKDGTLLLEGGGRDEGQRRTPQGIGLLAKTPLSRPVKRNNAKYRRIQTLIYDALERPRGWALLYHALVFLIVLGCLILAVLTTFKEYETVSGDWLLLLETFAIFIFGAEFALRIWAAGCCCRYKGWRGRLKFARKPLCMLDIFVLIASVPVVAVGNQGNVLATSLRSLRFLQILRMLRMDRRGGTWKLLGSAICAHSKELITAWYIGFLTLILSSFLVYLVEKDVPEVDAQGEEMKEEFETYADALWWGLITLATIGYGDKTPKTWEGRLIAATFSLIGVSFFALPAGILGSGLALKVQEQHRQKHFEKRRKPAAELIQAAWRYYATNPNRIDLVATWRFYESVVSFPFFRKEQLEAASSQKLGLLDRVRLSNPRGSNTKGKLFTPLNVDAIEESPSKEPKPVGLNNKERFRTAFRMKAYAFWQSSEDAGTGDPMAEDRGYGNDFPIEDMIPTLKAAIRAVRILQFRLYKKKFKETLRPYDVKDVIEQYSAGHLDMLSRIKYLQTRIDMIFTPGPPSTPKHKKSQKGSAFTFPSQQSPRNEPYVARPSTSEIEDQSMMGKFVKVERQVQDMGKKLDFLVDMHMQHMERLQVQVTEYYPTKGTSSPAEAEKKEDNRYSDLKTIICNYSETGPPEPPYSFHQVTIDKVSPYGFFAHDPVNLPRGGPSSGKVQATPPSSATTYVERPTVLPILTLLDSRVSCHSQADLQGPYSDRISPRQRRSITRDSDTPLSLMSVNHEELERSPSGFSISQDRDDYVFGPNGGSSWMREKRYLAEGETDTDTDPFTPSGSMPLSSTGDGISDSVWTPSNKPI

## CCOC(=O)Nc1ccc(NCc2ccc(F)cc2)cc1NC(=O)OC(C)OC(=O)C(C)C (stereo not shown) [Compound 3]
[1]; mouse
  Time by which prodrug is degraded in plasma: ≤ 1 h
[1]; rat
  Time by which prodrug is degraded in plasma: ≤ 1 h
[2]
  AUClast/D: 0.0136 ng·h/mL/mg/kg
  Cmax/D: 0.0273 ng/mL/mg/kg
[2]; male, rat, in vivo
  Total exposure of ezogabine relative to ezogabine on a given molar dose: > 2 fold
[3]; 0.1N HCl
  Solubility: <1000 µg/mL
[3]; 0.1 N Na2HPO4, aqueous buffer, thermodynamic from solid, read-out: Solubility (freely soluble at tested concentration)
  Solubility: < 1000 µg/mL
[3]; 0.1N NaCl
  Solubility: <1000 µg/mL
[3]; 0.1 N NaCl, saline or isotonic, thermodynamic from solid, read-out: Solubility (freely soluble at tested concentration)
  Solubility: < 1000 µg/mL
[3]; 0.1N NaOH
  Solubility: <1000 µg/mL
[3]; 0.1 N NaOH, aqueous buffer, thermodynamic from solid, read-out: Solubility (freely soluble at tested concentration)
  Solubility: < 1000 µg/mL
[3]; 0.1 Na2HPO4
  Solubility: <1000 µg/mL
[3]; 1N HCl
  Solubility: >1000 µg/mL
[3]; Ethanol
  Solubility: >75000 µg/mL
[3]; Methanol
  Solubility: >75000 µg/mL
[3]; Water
  Solubility: <1000 µg/mL
[3]; aqueous buffer, thermodynamic from solid, 1N HCl, read-out: Solubility (soluble at tested concentration)
  Solubility: > 1000 µg/mL
[3]; ethanol, organic solvent or mixture, thermodynamic from solid, read-out: Solubility (freely soluble at tested concentration)
  Solubility: > 75000 µg/mL
[3]; methanol, organic solvent or mixture, thermodynamic from solid, read-out: Solubility (freely soluble at tested concentration)
  Solubility: > 75000 µg/mL
[3]; simulated gastric fluid, thermodynamic from solid, 0.1N HCl, read-out: Solubility (freely soluble at tested concentration)
  Solubility: < 1000 µg/mL
[3]; water, thermodynamic from solid, read-out: Solubility (freely soluble at tested concentration)
  Solubility: < 1000 µg/mL
[4]
  Exposure of the prodrug itself in systemic circulation: very little exposure
[5]
  Colour of stability solution: clear and colorless through Day 18
  Degradation / conversion to ezogabine in solution: converts to ezogabine under acidic conditions but does not in organic solvent
[5]; 0.1N HCl, room temp., normal light, 433 h
  Ezogabine Area (formed from the prodrug): 400 mAU
[5]; 1N HCl, room temp., normal light, 97 h
  Ezogabine Area (formed from the prodrug): 2881 mAU
[5]; Acetonitrile, room temp., normal light, 435 h
  Ezogabine Area (formed from the prodrug): 51 mAU
[5]; Ethanol, room temp., normal light, 390 h
  Ezogabine Area (formed from the prodrug): 43 mAU
[5]; Methanol, room temp., normal light, 435 h
  Ezogabine Area (formed from the prodrug): 41 mAU
[5]; 9 days
  Colour of stability solution: turned a golden yellow by Day 9
[5]; 390 h
  % Remaining: 97.6%
[5]; buffer, 97 h
  % Remaining: 1.78%
[5]; buffer, 433 h
  % Remaining: 11.8%
[6]; 0.1 N HCl
  Stability in solvent: appears to be stable over 4 days
[6]; 0.1N Na2HPO4, H2O, 0.1N NaCl, Day 1 to Day 3
  Change of solubility over time: increases in solubility over time
[6]; 1 N HCl
  Stability in solvent: not stable in 1 N HCl over 7 days
[6]; ethanol and methanol
  Stability in solvent: soluble and stable through 3 days in ethanol and methanol, while on Day 4 it exhibits degradation
[7]
  Activity against the primary target of Kv7.2/7.3: inactive
[8]; oral 5 mg/kg
  Reversal of mechanical hypersensitivity vs baseline: the 95% confidence intervals did not cross the baseline mean
[8]; oral 40 mg/kg
  Gram force to paw lift (von Frey): increased the gram force to paw lift significantly
[8]; oral 40 mg/kg, p=0.0003
  Reduction of latency of neuropathic ipsilateral paw withdrawal (pin prick): 9.2 s

## CCOC(=O)Nc1ccc(NCc2ccc(F)cc2)cc1NC(=O)[C@H](N)CO [Compound 6]
[2]
  AUClast/D: 199 ng·h/mL/mg/kg
  Cmax/D: 233 ng/mL/mg/kg
[5]
  Colour of stability solution: remained clear and colorless through Day 18
  Degradation / conversion to ezogabine in solution: very little degradation to ezogabine
[5]; 1N HCl, room temp., normal light, 437 h
  Ezogabine Area (formed from the prodrug): 58 mAU
[5]; 2N HCl 37C, 437 h
  Ezogabine Area (formed from the prodrug): 461 mAU
[5]; 2N HCl, room temp., normal light, 437 h
  Ezogabine Area (formed from the prodrug): 177 mAU
[5]; Methanol, room temp., normal light, 437 h
  Ezogabine Area (formed from the prodrug): 184 mAU
[5]; 437 h
  % Remaining: 67.7%

## CCNC(=O)CC[C@H](N)C(=O)Nc1cc(NCc2ccc(F)cc2)ccc1NC(=O)OCC.Cl [Compound 29]
[2]
  AUClast/D: 305 ng·h/mL/mg/kg
  Cmax/D: 44.2 ng/mL/mg/kg
[5]; 0.1N HCl, room temp., normal light, 441 h
  Ezogabine Area (formed from the prodrug): 0 mAU
[5]; 1N HCl, room temp., normal light, 441 h
  Ezogabine Area (formed from the prodrug): 1241 mAU
[5]; 2N HCl 37C, 441 h
  Ezogabine Area (formed from the prodrug): 1755 mAU
[5]; 2N HCl, room temp., normal light, 441 h
  Ezogabine Area (formed from the prodrug): 1659 mAU
[5]; Methanol, room temp., normal light, 441 h
  Ezogabine Area (formed from the prodrug): 0 mAU
[5]
  Degradation / conversion to ezogabine in solution: exhibits degradation under acidic conditions and also conversion to ezogabine
